Laboratory results as given in PubChem BioAssay (NCI).
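Assay format: 96-well plates, 48-hour exposure. GI50: concentration for 50% inhibition of growth. TGI marks complete inhibition of growth.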

Experiments:
Test in all cases: NCI tumour cell line growth inhibition, 48 h
[1] = system: 786-0 renal
[2] = system: A498 renal
[3] = system: A549 NSCLC
[4] = system: ACHN renal
[5] = system: BT-549 breast
[6] = system: CAKI-1 renal
[7] = system: CCRF-CEM leukemia
[8] = system: COLO 205 colon
[9] = system: DU-145 prostate
[10] = system: EKVX NSCLC
[11] = system: HCC-2998 colon
[12] = system: HCT-116 colon
[13] = system: HCT-15 colon
[14] = system: HOP-62 NSCLC
[15] = system: HOP-92 NSCLC
[16] = system: HS 578T breast
[17] = system: HT29 colon
[18] = system: IGROV1 ovarian
[19] = system: K-562 leukemia
[20] = system: KM12 colon
[21] = system: LOX IMVI melanoma
[22] = system: M14 melanoma
[23] = system: MALME-3M melanoma
[24] = system: MCF7 breast
[25] = system: MDA-MB-231 breast
[26] = system: MDA-MB-435
[27] = system: MOLT-4 leukemia
[28] = system: NCI-H23 lung
[29] = system: NCI-H460 lung
[30] = system: NCI-H522 lung
[31] = system: NCI/ADR-RES ovarian
[32] = system: OVCAR-3 ovarian
[33] = system: OVCAR-4 ovarian
[34] = system: OVCAR-5 ovarian
[35] = system: OVCAR-8 ovarian
[36] = system: PC-3 prostate
[37] = system: RPMI-8226 leukemia
[38] = system: RXF 393 renal
[39] = system: SF-268 CNS
[40] = system: SF-295 CNS
[41] = system: SF-539 CNS
[42] = system: SK-MEL-2 melanoma
[43] = system: SK-MEL-28 melanoma
[44] = system: SK-MEL-5 melanoma
[45] = system: SK-OV-3 ovarian
[46] = system: SN12C renal
[47] = system: SNB-19 CNS
[48] = system: SR leukemia
[49] = system: SW-620 colon
[50] = system: T-47D breast
[51] = system: TK-10 renal
[52] = system: U251 CNS
[53] = system: UACC-257 melanoma
[54] = system: UACC-62 melanoma
[55] = system: UO-31 renal

## CC(=O)Oc1cn(-c2ccc(Cl)cc2)nc1C1=NN(C(C)=O)C(c2ccc(F)cc2F)O1 (stereo not given)
[1]
  GI50: 26.1 µM
  TGI: 70.3 µM
[2]
  GI50: 29.1 µM
  TGI: 66.4 µM
[3]
  GI50: 33.2 µM
  TGI: > 100 µM
[4]
  GI50: 44.3 µM
  TGI: > 100 µM
[5]
  GI50: 19.5 µM
  TGI: 54.7 µM
[6]
  GI50: 35.6 µM
  TGI: 79.8 µM
[7]
  GI50: 27.5 µM
  TGI: > 100 µM
[8]
  GI50: 42.7 µM
  TGI: > 100 µM
[9]
  GI50: 39.2 µM
  TGI: > 100 µM
[10]
  GI50: 28.5 µM
  TGI: 83 µM
[11]
  GI50: 35.7 µM
  TGI: 55.3 µM
[12]
  GI50: 33.4 µM
  TGI: > 100 µM
[13]
  GI50: 32.2 µM
  TGI: > 100 µM
[14]
  GI50: 36.2 µM
  TGI: > 100 µM
[15]
  GI50: 20.6 µM
  TGI: 71.6 µM
[16]
  GI50: 31.8 µM
  TGI: 88.8 µM
[17]
  GI50: 40.1 µM
  TGI: > 100 µM
[18]
  GI50: 13.4 µM
  TGI: 76.2 µM
[19]
  GI50: 30 µM
  TGI: > 100 µM
[20]
  GI50: 25.4 µM
  TGI: 84.2 µM
[21]
  GI50: 30.1 µM
  TGI: > 100 µM
[22]
  GI50: 31.4 µM
  TGI: > 100 µM
[23]
  GI50: 14.8 µM
  TGI: 63.5 µM
[24]
  GI50: 30 µM
  TGI: > 100 µM
[25]
  GI50: 30.4 µM
  TGI: > 100 µM
[26]
  GI50: 27.9 µM
  TGI: 89.5 µM
[27]
  GI50: 18.5 µM
  TGI: 94 µM
[28]
  GI50: 41.6 µM
  TGI: > 100 µM
[29]
  GI50: 34.4 µM
  TGI: > 100 µM
[30]
  GI50: 45.6 µM
  TGI: > 100 µM
[31]
  GI50: 42.9 µM
  TGI: > 100 µM
[32]
  GI50: 19.7 µM
  TGI: 75.9 µM
[33]
  GI50: 74.3 µM
  TGI: > 100 µM
[34]
  GI50: 44.4 µM
  TGI: > 100 µM
[35]
  GI50: 34.6 µM
  TGI: > 100 µM
[36]
  GI50: 27.9 µM
  TGI: > 100 µM
[37]
  GI50: 20.5 µM
  TGI: 54.8 µM
[38]
  GI50: 23.9 µM
  TGI: > 100 µM
[39]
  GI50: 29.6 µM
  TGI: > 100 µM
[40]
  GI50: 20.2 µM
  TGI: 51.3 µM
[41]
  GI50: 29.8 µM
  TGI: > 100 µM
[42]
  GI50: 74 µM
  TGI: > 100 µM
[43]
  GI50: 50.2 µM
  TGI: > 100 µM
[44]
  GI50: 18.4 µM
  TGI: 38.4 µM
[45]
  GI50: 50.4 µM
  TGI: > 100 µM
[46]
  GI50: 33.6 µM
  TGI: > 100 µM
[47]
  GI50: 48.7 µM
  TGI: > 100 µM
[48]
  GI50: 35.8 µM
  TGI: 85.4 µM
[49]
  GI50: 41.4 µM
  TGI: > 100 µM
[50]
  GI50: 67.3 µM
  TGI: > 100 µM
[51]
  GI50: 21.1 µM
  TGI: 61.9 µM
[52]
  GI50: 38.5 µM
  TGI: > 100 µM
[53]
  GI50: 27.2 µM
  TGI: 81.6 µM
[54]
  GI50: 28.8 µM
  TGI: 96.3 µM
[55]
  GI50: 31.8 µM
  TGI: > 100 µM
